According to patent US7956188B2, “Acetamide compounds as fungicides” (Syngenta Crop Protection, Inc., priority 2004, dated 2011):

Structure (SMILES)	melting point
CSC(Oc1cc(C)c(Br)c(C)c1)C(=O)NC(C)(C)C (stereo not drawn) [12 (15), 2-(4-bromo-3,5-dimethylphenoxy)-2-methylthio-N-(2-methyl-prop-2-yl)acetamide]	123 to 125 °C
CSC(Oc1cc(Cl)c2ncc(Br)cc2c1)C(=O)NC(C)(C)C (stereo not drawn) [12 (62), 2-(3-bromo-8-chloro-quinolin-6-yloxy)-N-tert-butyl-2-methylsulfanyl-acetamide]	160 to 161 °C
CSC(Oc1cc(I)c2ncc(Br)cc2c1)C(=O)NC(C)(C)C (stereo not drawn) [12 (62A), 2-(3-bromo-8-iodo-quinolin-6-yloxy)-N-tert-butyl-2-methylsulfanyl-acetamide]	171 to 172 °C
